Data set [1] relates to canonical pathway in MM cell lines and tumors. The note with it: cited from earlier work.
For data set [2], the system named is patient EBV cells with heterozygous risk allele (1/2). Briefly: MTT proliferation assay of nucleofected cells treated with sFasL. Particulars: cells treated with sFasL 24 h post nucleofection; compared with control siRNA (CsiRNA) plus sFasL. Type of data set: cell-based, human. The protocol: The effect of DcR3 on cell proliferation was measured by the colorimetric MTT assay using an MTT (Microtiter-tetrazolium, Sigma, USA) based assay. Briefly, the cells (5,000/ml) were incubated in triplicate in a 96-well plate (Costar, Cambridge, Mass., USA) in a final volume of 0.2 ml for the indicated times. Thereafter, 20 μl of MTT solution (5 g/L) was added to each well and then incubated for 12 h. After centrifugation, the supernatant was removed from each well. The colored formazan crystal produced from MTT was dissolved in 0.15 ml of DMSO and then the optical density (OD) value was measured on a microplate reader. Each experiment was performed in duplicate and repeated five times.
(§1) Post 24, 48 and 72 hours of nucleofection, cells were harvested and whole cell lysates were evaluated for DcR3 expression by immunoblot analysis. […] Nucleofection had no adverse effect on cell viability (data not shown). In addition, cells nucleofected with control and DcR3 siRNA post 24 h were treated with sFasL and analysed for cell death using MTT Proliferation assay.

Data set [3] deals with DcR3. Briefly: siRNA knockdown of DcR3 expression, immunoblot of whole cell lysates. Type of data set: cell-based, human. Particulars: P (1/2) EBV cells, 100 nM siRNA, versus control siRNA; whole cell lysates 24, 48 and 72 hours post nucleofection. The protocol:
The expression of DcR3 was reduced using siRNAs in the EBV transformed cell lines derived from control and IBD patients harboring risk variants in TNFRSF6B (A allele). Briefly, 3×10^6 cells were transfected with 100 nM DcR3 siRNA duplexes or with DcR3 non-silence control using Amaxa Nucleofector Kit and program T-20. The siRNA-transfected cells were incubated for 48 h after nucleofection and the degree of knockdown relative to introduction of control siRNA was confirmed by western blot using DcR3 mouse monoclonal antibody (Abgent) on whole cell lysates. The 21-mer siRNAs were synthesized by DHARMACON. The DcR3 siRNA sequences were as follows: sense sequence, 5′-GCC AGG CUC UUC CUC CCA UdTdT-3′ (SEQ ID NO: 1); antisense sequence, 5′-AUG GGA GGA AGA GCC UGG CdTdT-3′ (SEQ ID NO: 2). The non-silence control siRNA sequences were as follows: sense sequence, 5′-GCC CGC UUU CCC UCA GCA UdTdT-3′ (SEQ ID NO: 3); antisense sequence, 5′-AUG CUG AGG GAA AGC GGG C-3 (SEQ ID NO: 4).
as §1

d = 2'-deoxy (DNA); r = 2'-OH (RNA)

For the compound `CC(C)C[C@H](NC(=O)[C@H](Cc1ccccc1)NC(=O)c1cnccn1)B(O)O` [Velcade bortezomib, bortezomib], the “off-target effect on canonical NF-κB pathway” value in data set [1] is “induce up-regulation of the canonical pathway”.
Turning to “DcR3 siRNA: 21-mer siRNA duplex, sense 5′-GCC AGG CUC UUC CUC CCA UdTdT-3′, antisense 5′-AUG GGA GGA AGA GCC UGG CdTdT-3′, synthesized by DHARMACON (sense GCCAGGCUCUUCCUCCCAUTT; antisense AUGGGAGGAAGAGCCUGGCTT; sugars from the 5' end r19 d2, backbone not given here)”, the “cell growth (MTT) after sFasL treatment” value in data set [2] is “decrease in cell growth”. In addition, the “DcR3 expression post nucleofection” value in data set [3] was “reduced DcR3 levels first seen at 24 h and maintained for at least 48 h”.
